Assay results as given in patent US20130303509A1, “NAMPT INHIBITORS” (AbbVie Inc., priority 2012, published 2013).

tested on: PC3 cells; assay: NAMPT Cell Proliferation Assay; format: cell-based; conditions: Homo sapiens, PC-3, 120 h, 5 days incubation, cell viability by Cell Titer Glo
Outline: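 Seeded at 500 cells/well in RPMI with 10% heat-inactivated FBS and left to attach overnight at 37° C, 5% CO2. Compounds were added as 10-fold dilutions […] for 5 days, then viability was read by CellTiter-Glo. IC50s came from sigmoidal fits of percent inhibition.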

SMILES | IC50 [nM]
Cc1ncccc1N1CC[C@H](C(=O)Nc2ccc(C3CCN(C(=O)c4ccccc4)CC3)cc2)C1 [Example 743, (3S)—N-[4-(1-benzoylpiperidin-4-yl)phenyl]-1-(2-methylpyridin-3-yl)pyrrolidine-3-carboxamide] | 6620
Cc1ncccc1N1CC[C@H](C(=O)Nc2ccc(C3CCN(C(=O)c4ccccc4F)CC3)cc2)C1 [Example 744, (3S)—N-{4-[1-(2-fluorobenzoyl)piperidin-4-yl]phenyl}-1-(2-methylpyridin-3-yl)pyrrolidine-3-carboxamide] | 2720
Cc1ncccc1N1CC[C@H](C(=O)Nc2ccc(C3CCN(C(=O)CCC(F)(F)F)CC3)cc2)C1 [Example 745, (3S)-1-(2-methylpyridin-3-yl)-N-{4-[1-(4,4,4-trifluorobutanoyl)piperidin-4-yl]phenyl}pyrrolidine-3-carboxamide] | > 10000
CC(C)Cn1cc(-c2ccc(C(=O)N[C@H]3CCN(c4ccc(Cl)nn4)C3)o2)cn1 [Example 746, N-[(3S)-1-(6-chloropyridazin-3-yl)pyrrolidin-3-yl]-5-[1-(2-methylpropyl)-1H-pyrazol-4-yl]furan-2-carboxamide] | > 10000
CC(C)Cn1cc(-c2ccc(C(=O)N[C@H]3CCN(c4cccnn4)C3)o2)cn1 [Example 747, 5-[1-(2-methylpropyl)-1H-pyrazol-4-yl]-N-[(3S)-1-(pyridazin-3-yl)pyrrolidin-3-yl]furan-2-carboxamide] | 5920
CC1(Cn2cc(-c3ccc(NC(=O)C4CN(c5cccnn5)C4)cc3)cn2)CCOCC1 [Example 748, N-(4-{1-[(4-methyltetrahydro-2H-pyran-4-yl)methyl]-1H-pyrazol-4-yl}phenyl)-1-(pyridazin-3-yl)azetidine-3-carboxamide] | 2.58
CC(C)C(=O)N1CCC(c2ccc(C(=O)N[C@H]3CCN(c4ccc(Cl)nn4)C3)cc2)CC1 [Example 749, N-[(3S)-1-(6-chloropyridazin-3-yl)pyrrolidin-3-yl]-4-[1-(2-methylpropanoyl)piperidin-4-yl]benzamide] | > 10000
O=C(Nc1ccc(-c2cnn(CCN3CCNCC3)c2)cc1)C1CN(c2cccnn2)C1 [Example 750, N-(4-{1-[2-(piperazin-1-yl)ethyl]-1H-pyrazol-4-yl}phenyl)-1-(pyridazin-3-yl)azetidine-3-carboxamide] | 226
CC(C)(C)Cn1cc(-c2ccc(NC(=O)C3CN(c4cccnn4)C3)cc2)cn1 [Example 751, N-{4-[1-(2,2-dimethylpropyl)-1H-pyrazol-4-yl]phenyl}-1-(pyridazin-3-yl)azetidine-3-carboxamide] | 2.71
CC(C)C(=O)N1CCC(c2ccc(C(=O)N[C@H]3CCN(c4cccnn4)C3)cc2)CC1 [Example 752, 4-[1-(2-methylpropanoyl)piperidin-4-yl]-N-[(3S)-1-(pyridazin-3-yl)pyrrolidin-3-yl]benzamide] | 2450
CC(C)(O)Cn1cc(-c2ccc(NC(=O)C3CN(c4cccnn4)C3)cc2)cn1 [Example 753, N-{4-[1-(2-hydroxy-2-methylpropyl)-1H-pyrazol-4-yl]phenyl}-1-(pyridazin-3-yl)azetidine-3-carboxamide] | 8.92
O=C(N[C@H]1CCN(c2cccnn2)C1)c1ccc(C2CCN(C(=O)c3cccc(F)c3)CC2)s1 [Example 754, 5-[1-(3-fluorobenzoyl)piperidin-4-yl]-N-[(3S)-1-(pyridazin-3-yl)pyrrolidin-3-yl]thiophene-2-carboxamide] | 94.8
O=C(N[C@H]1CCN(c2cccnn2)C1)c1ccc(C2CCN(C(=O)c3ccc(F)cc3)CC2)s1 [Example 755, 5-[1-(4-fluorobenzoyl)piperidin-4-yl]-N-[(3S)-1-(pyridazin-3-yl)pyrrolidin-3-yl]thiophene-2-carboxamide] | 190
CC1(Cn2cc(-c3ccc(NC(=O)[C@H]4CCN(c5cccnn5)C4)cc3)cn2)CCOCC1 [Example 756, (3S)—N-(4-{1-[(4-methyltetrahydro-2H-pyran-4-yl)methyl]-1H-pyrazol-4-yl}phenyl)-1-(pyridazin-3-yl)pyrrolidine-3-carboxamide] | 9.08
CC(C)(O)Cn1cc(-c2ccc(NC(=O)[C@H]3CCN(c4cccnn4)C3)cc2)cn1 [Example 757, (3S)-N-{4-[1-(2-hydroxy-2-methylpropyl)-1H-pyrazol-4-yl]phenyl}-1-(pyridazin-3-yl)pyrrolidine-3-carboxamide] | 67.7
O=C(N[C@H]1CCN(c2cccnn2)C1)c1ccc(C2CCN(C(=O)C3CCOCC3)CC2)s1 [Example 758, N-[(3S)-1-(pyridazin-3-yl)pyrrolidin-3-yl]-5-[1-(tetrahydro-2H-pyran-4-ylcarbonyl)piperidin-4-yl]thiophene-2-carboxamide] | 857
CC(C)(C)Cn1cc(-c2ccc(NC(=O)[C@H]3CCN(c4cccnn4)C3)cc2)cn1 [Example 759, (3S)-N-{4-[1-(2,2-dimethylpropyl)-1H-pyrazol-4-yl]phenyl}-1-(pyridazin-3-yl)pyrrolidine-3-carboxamide] | 6.2
CC(C)C(=O)N1CCC(c2ccc(C(=O)N[C@H]3CCN(c4cccnn4)C3)s2)CC1 [Example 760, 5-[1-(2-methylpropanoyl)piperidin-4-yl]-N-[(3S)-1-(pyridazin-3-yl)pyrrolidin-3-yl]thiophene-2-carboxamide] | 253

Results, then the compound that gave them:

IC50 [nM] | SMILES
92.3 | O=C(N[C@H]1CCN(c2cccnn2)C1)c1ccc(C2CCN(C(=O)c3ccc(F)cc3F)CC2)s1 [Example 761, 5-[1-(2,4-difluorobenzoyl)piperidin-4-yl]-N-[(3S)-1-(pyridazin-3-yl)pyrrolidin-3-yl]thiophene-2-carboxamide]
709 | CC1CC1C(=O)N1CCC(c2ccc(C(=O)N[C@H]3CCN(c4cccnn4)C3)s2)CC1 (stereo partly drawn) [Example 762, 5-{1-[(2-methylcyclopropyl)carbonyl]piperidin-4-yl}-N-[(3S)-1-(pyridazin-3-yl)pyrrolidin-3-yl]thiophene-2-carboxamide]
8.41 | O=C(N[C@H]1CCN(c2cccnn2)C1)c1ccc(C2CCN(C(=O)c3ccccc3F)CC2)s1 [Example 763, 5-[1-(2-fluorobenzoyl)piperidin-4-yl]-N-[(3S)-1-(pyridazin-3-yl)pyrrolidin-3-yl]thiophene-2-carboxamide]
22.1 | O=C(N[C@H]1CCN(c2cccnn2)C1)c1ccc(C2CCN(C(=O)c3ccccc3)CC2)s1 [Example 764, 5-(1-benzoylpiperidin-4-yl)-N-[(3S)-1-(pyridazin-3-yl)pyrrolidin-3-yl]thiophene-2-carboxamide]
1020 | O=C(N[C@H]1CCN(c2cccnn2)C1)c1ccc(C2CCN(C(=O)C3CCOC3)CC2)s1 (stereo partly drawn) [Example 765, N-[(3S)-1-(pyridazin-3-yl)pyrrolidin-3-yl]-5-[1-(tetrahydrofuran-3-ylcarbonyl)piperidin-4-yl]thiophene-2-carboxamide]
787 | O=C(N[C@H]1CCN(c2cccnn2)C1)c1ccc(C2CCN(C(=O)[C@H]3CCCO3)CC2)s1 [Example 766, N-[(3S)-1-(pyridazin-3-yl)pyrrolidin-3-yl]-5-{1-[(2R)-tetrahydrofuran-2-ylcarbonyl]piperidin-4-yl}thiophene-2-carboxamide]
1280 | CN1CCC(CC(=O)N2CCC(c3ccc(C(=O)N[C@H]4CCN(c5cccnn5)C4)s3)CC2)CC1 [Example 767, 5-{1-[(1-methylpiperidin-4-yl)acetyl]piperidin-4-yl}-N-[(3S)-1-(pyridazin-3-yl)pyrrolidin-3-yl]thiophene-2-carboxamide]
111 | O=C(N[C@H]1CCN(c2cccnn2)C1)c1ccc(C2CCN(C(=O)c3cscn3)CC2)s1 [Example 768, N-[(3S)-1-(pyridazin-3-yl)pyrrolidin-3-yl]-5-[1-(1,3-thiazol-4-ylcarbonyl)piperidin-4-yl]thiophene-2-carboxamide]
18.6 | CC(C)Cn1cc(-c2ccc(NC(=O)[C@H]3CCN(c4cccnn4)C3)cc2)cn1 [Example 769, (3S)-N-{4-[1-(2-methylpropyl)-1H-pyrazol-4-yl]phenyl}-1-(pyridazin-3-yl)pyrrolidine-3-carboxamide]
138 | CC(C)n1cc(-c2ccc(NC(=O)[C@H]3CCN(c4cccnn4)C3)cc2)cn1 [Example 770, (3S)-N-{4-[1-(propan-2-yl)-1H-pyrazol-4-yl]phenyl}-1-(pyridazin-3-yl)pyrrolidine-3-carboxamide]
69.9 | O=C(Nc1ccc(-c2cnn(CC3CC3)c2)cc1)[C@H]1CCN(c2cccnn2)C1 [Example 771, (3S)-N-{4-[1-(cyclopropylmethyl)-1H-pyrazol-4-yl]phenyl}-1-(pyridazin-3-yl)pyrrolidine-3-carboxamide]
63.6 | O=C(Nc1ccc(-c2cnn(CC3CCCCO3)c2)cc1)[C@H]1CCN(c2cccnn2)C1 (stereo partly drawn) [Example 772, (3S)-1-(pyridazin-3-yl)-N-{4-[1-(tetrahydro-2H-pyran-2-ylmethyl)-1H-pyrazol-4-yl]phenyl}pyrrolidine-3-carboxamide]
85.7 | CC(C)(C)n1cc(-c2ccc(NC(=O)[C@H]3CCN(c4cccnn4)C3)cc2)cn1 [Example 773, (3S)-N-[4-(1-tert-butyl-1H-pyrazol-4-yl)phenyl]-1-(pyridazin-3-yl)pyrrolidine-3-carboxamide]
2.52 | O=C(Nc1ccc(O[C@@H]2CCN(C(=O)c3ccccc3)C2)cc1)[C@H]1CCN(c2cccnn2)C1 [Example 774, (3S)—N-(4-{[(3R)-1-benzoylpyrrolidin-3-yl]oxy}phenyl)-1-(pyridazin-3-yl)pyrrolidine-3-carboxamide]
2.15 | O=C(Nc1ccc(O[C@@H]2CCN(C(=O)c3ccccc3F)C2)cc1)[C@H]1CCN(c2cccnn2)C1 [Example 775, (3S)-N-(4-{[(3R)-1-(2-fluorobenzoyl)pyrrolidin-3-yl]oxy}phenyl)-1-(pyridazin-3-yl)pyrrolidine-3-carboxamide]
7.64 | O=C(Nc1ccc(O[C@@H]2CCN(C(=O)c3cccc(F)c3)C2)cc1)[C@H]1CCN(c2cccnn2)C1 [Example 776, (3S)-N-(4-{[(3R)-1-(3-fluorobenzoyl)pyrrolidin-3-yl]oxy}phenyl)-1-(pyridazin-3-yl)pyrrolidine-3-carboxamide]
